Data as given in patent US20240174690A1, “ANNULATED 2-AMINO-3-CYANO THIOPHENES AND DERIVATIVES FOR THE TREATMENT OF CANCER” (BOEHRINGER INGELHEIM INTERNATIONAL GMBH, priority 2021, published 2024).

Experiments:
AsPC-1 cells = experiment: AsPC-1 CTG proliferation assay (120 h) (pancreatic cancer, G12D); type: cell-based; conditions: Homo sapiens, ASPC1
Procedure: AsPC-1 CTG Proliferation Assay (120 h) (Pancreatic Cancer, G12D)
The CTG assay is designed to measure quantitatively the proliferation of AsPC-1 cells (ATCC […]), using the CellTiter Glow Assay Kit (Promega G7571). Cells are grown in RPMI medium (ATCC) supplemented with Fetal Calf Serum (Life Technologies, Gibco BRL, Cat. No. 10270-106). On “day 0” 2000 AsPC-1 cells are seeded in 60 μL RPMI ATCC+10% FCS+Penstrep in a 384-well plate, flat and clear bottom (Greiner, PNr. 781091). Cells are then incubated in the plates at 37° C. in a CO2 incubator overnight. On day 1, compounds (10 mM stock in DMSO) are added with the ECHO acoustic liquid handler system (Beckman Coulter), including DMSO controls. Plates are incubated for 120 h, and cell viability is measured using CellTiter-Glo luminescent cell viability reagent (Promega product code G7570). Viability (stated as percent of control) is defined as relative luminescence units RLU of each well divided by the RLU of cells in DMSO controls. IC50 values are determined from viability measurements by non-linear regression using a four-parameter model.

CYP3A4 = CYP3A4 (Homo sapiens (Human), UniProt P08684); experiment: Mechanism based inhibition of CYP3A4 assay (MBI 3A4); type: in vitro ADME; conditions: hydroxy-midazolam formation after 30 min vs 0 min preincubation, 25 uM, human liver microsomes
Procedure: After preincubation, the incubate is diluted 1:10 and the substrate midazolam is added for the main incubation (15 min). The main incubation is quenched with acetonitrile and the formation of hydroxy-midazolam is quantified via LC/MS-MS. The formation of hydroxy-midazolam from the 30 min preincubation relative to the formation from the 0 min preincubation is used as a readout. Values of less than 100% mean that the substrate midazolam is metabolized to a lower extent upon 30 min preincubation compared to 0 min preincubation. In general low effects upon 30 min preincubation are desired (corresponding to values close to 100%/not different to the values determined with water control).

SK-CO-1 cells = experiment: SK-CO-1 CTG proliferation assay (120 h) (CRC, G12V); type: cell-based; conditions: Homo sapiens; SK-CO-1 cells (CRC, G12V), CTG 120 h
Procedure: SK-CO-1 CTG Proliferation Assay (120 h) (CRC, G12V)
SK-CO-1 cells (ATCC HTB-39) are dispensed into 384-well plates, flat and clear bottom (Greiner, PNr. 781091) at a density of 500 cells per well in 60 μL EMEM (Sigma M5650)+10% Fetal Calf Serum (HyClone, PNr.: SH30084.03) and incubated at 37° C. in a CO2 incubator overnight. The next day, compounds (10 mM stock in DMSO) are added with the ECHO acoustic liquid handler system (Beckman Coulter), including DMSO controls. Plates are incubated for 120 h, and cell viability is measured using CellTiter-Glo luminescent cell viability reagent (Promega product code G7570). Viability (stated as percent of control) is defined as relative luminescence units RLU of each well divided by the RLU of cells in DMSO controls. IC50 values are determined from viability measurements by non-linear regression using a four-parameter model.

[1] = tested on: KRAS G12V-dependent Ba/F3 cells; experiment: Ba/F3 proliferation assay, KRAS G12V; type: cell-based; conditions: Mus musculus, BaF3, 72 h, AlamarBlue;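 note: proliferation IC50 in KRAS G12V-dependent Ba/F3 cells read by AlamarBlue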
Summary of the method: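 Ba/F3 cells retrovirally transduced with KRAS G12 mutants, puromycin-selected and grown without IL-3, so proliferation depends on the mutant KRAS. Compounds tested in technical duplicates; viability read by AlamarBlue fluorescence, with curve fitting for potency.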

[2] = Plasma protein binding assay (PPB), equilibrium dialysis, 10% FCS in PBS; type: in vitro ADME; conditions: bovine, read-out: PPB 10% FCS (% fu)
Summary of the method: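 Equilibrium dialysis (5-10 kg/mol cut-off membrane) of 1-10 μmol/L test compound in 10% FCS/PBS against PBS with or without dextran, 3-5 h at 37° C. Compound in each chamber quantified by LC-MS after protein precipitation; fu calculated from Cserum and Cbuffer.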

Sequence of CYP3A4 (P08684 whole entry): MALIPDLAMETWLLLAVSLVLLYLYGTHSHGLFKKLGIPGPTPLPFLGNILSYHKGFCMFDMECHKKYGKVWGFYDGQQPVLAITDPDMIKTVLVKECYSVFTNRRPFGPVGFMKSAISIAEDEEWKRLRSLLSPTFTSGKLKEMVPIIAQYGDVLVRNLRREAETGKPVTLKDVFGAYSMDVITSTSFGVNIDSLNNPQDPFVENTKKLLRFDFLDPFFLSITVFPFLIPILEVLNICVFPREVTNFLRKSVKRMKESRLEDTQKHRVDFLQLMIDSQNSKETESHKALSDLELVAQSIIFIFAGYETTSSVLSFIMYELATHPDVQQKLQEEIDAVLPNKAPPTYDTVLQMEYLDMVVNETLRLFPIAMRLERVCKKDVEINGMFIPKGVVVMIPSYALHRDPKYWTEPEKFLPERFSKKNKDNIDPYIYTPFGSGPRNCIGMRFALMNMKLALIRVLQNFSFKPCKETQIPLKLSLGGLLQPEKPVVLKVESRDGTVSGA

Structure (SMILES)	IC50 (AsPC-1 cells) [nM]	MBI 3A4 (CYP3A4) [%]	IC50 (SK-CO-1 cells) [nM]	IC50 [1] [nM]	fraction unbound [2]
C[C@H](Oc1cc(-c2ccn(C3CC3)n2)nc(-c2noc3c2CCC[C@@]32CCCc3sc(N)c(C#N)c32)n1)[C@@H]1CCCN1C [II-98]	3340	74	137	14	0.01
C[C@H](Oc1cc(N2CCC(C#N)C2)nc(-c2noc3c2CCC[C@@]32CCCc3sc(N)c(C#N)c32)n1)[C@@H]1CCCN1C (stereo partly shown) [II-99]	3240	78	159	35	0.11
C[C@H](Oc1cc(-c2ccn(C3COC3)n2)nc(-c2noc3c2CCC[C@@]32CCCc3sc(N)c(C#N)c32)n1)[C@@H]1CCCN1C [II-109]	3830	63	106	18	0.18
C[C@H](Oc1cc(-c2cnsc2)nc(-c2noc3c2CCC[C@@]32CCCc3sc(N)c(C#N)c32)n1)[C@@H]1CCCN1C [II-111]	2810	76	51	4	0.11
C[C@H](O)Cn1ccc(-c2cc(O[C@@H](C)[C@@H]3CCCN3C)nc(-c3noc4c3CCC[C@@]43CCCc4sc(N)c(C#N)c43)n2)n1 [II-112]	2250	81	34	6	0.41
COC(=O)c1ccc(-c2cc(O[C@@H](C)[C@@H]3CCCN3C)nc(-c3noc4c3CCC[C@@]43CCCc4sc(N)c(C#N)c43)n2)o1 [II-114]	2300	85	64	7	0.07
C[C@H](Oc1cc(-c2ccn(C[C@@H](C)O)n2)nc(-c2noc3c2CCC[C@@]32CCCc3sc(N)c(C#N)c32)n1)[C@@H]1CCCN1C [II-117]	1660	77	24	6	0.19
C[C@H](Oc1cc(-n2cc(C3CC3)nn2)nc(-c2noc3c2CCC[C@@]32CCCc3sc(N)c(C#N)c32)n1)[C@@H]1CCCN1C [II-118]	3170	45	3860	26	0.08
C[C@H](Oc1cc(-n2ccc(-c3ccccn3)n2)nc(-c2noc3c2CCC[C@@]32CCCc3sc(N)c(C#N)c32)n1)[C@@H]1CCCN1C [II-119]	1320	52	37	6	0.04

Other lines, results leading:

IC50 (AsPC-1 cells) [nM]	MBI 3A4 (CYP3A4) [%]	IC50 (SK-CO-1 cells) [nM]	IC50 [1] [nM]	fraction unbound [2]	Structure (SMILES)
1320	79	31	6	0.07	C[C@H](Oc1cc(-n2cncc3ccnc2-3)nc(-c2noc3c2CCC[C@@]32CCCc3sc(N)c(C#N)c32)n1)[C@@H]1CCCN1C [II-105]
9450	61	491	23	0.2	Cc1cn(-c2cc(O[C@@H](C)[C@@H]3CCCN3C)nc(-c3noc4c3CCC[C@@]43CCCc4sc(N)c(C#N)c43)n2)nn1 [II-106]
7270	58	181	8	0.24	CO[C@@H]1C[C@@H]([C@H](C)Oc2cc(-c3ccn(C4COC4)n3)nc(-c3noc4c3CCC[C@@]43CCCc4sc(N)c(C#N)c43)n2)N(C)C1 [II-107]
2820	67	126	13	0.01	C[C@H](Oc1cc(-n2ccc(Br)n2)nc(-c2noc3c2CCC[C@@]32CCCc3sc(N)c(C#N)c32)n1)[C@@H]1CCCN1C [II-110]
3510	71	126	13	0.24	C[C@H](Oc1cc(-n2ccnc2)nc(-c2noc3c2CCC[C@@]32CCCc3sc(N)c(C#N)c32)n1)[C@@H]1C[C@@H](F)CN1C [II-120]
